“And” between values parts separate entries of the source, which are not always exact repeats. Identical values can stand only once.
How the values were obtained:
[1] = test system: EP AChRs of CMS patient (εD175N and εN182Y); experiment: Patch-clamp recordings of ACh-elicited channel currents from patient endplates; format: cell-based, human; conditions: −80 mV
Torpedo receptor = conditions: resting closed state; ref Sine et al., 1990; cited from earlier work
fetal mouse receptor = conditions: resting closed state; ref Zhang et al., 1995; cited from earlier work
adult human receptor = conditions: resting closed state; ref Ohno et al., 1996; Wang et al., 1999; cited from earlier work
wild-type AChR = wild-type AChR (Homo sapiens, UniProt P02708+Q04844+Q07001); format: binding; conditions: 100 μM proadifen
Chain of wild-type AChR (P02708 21-457): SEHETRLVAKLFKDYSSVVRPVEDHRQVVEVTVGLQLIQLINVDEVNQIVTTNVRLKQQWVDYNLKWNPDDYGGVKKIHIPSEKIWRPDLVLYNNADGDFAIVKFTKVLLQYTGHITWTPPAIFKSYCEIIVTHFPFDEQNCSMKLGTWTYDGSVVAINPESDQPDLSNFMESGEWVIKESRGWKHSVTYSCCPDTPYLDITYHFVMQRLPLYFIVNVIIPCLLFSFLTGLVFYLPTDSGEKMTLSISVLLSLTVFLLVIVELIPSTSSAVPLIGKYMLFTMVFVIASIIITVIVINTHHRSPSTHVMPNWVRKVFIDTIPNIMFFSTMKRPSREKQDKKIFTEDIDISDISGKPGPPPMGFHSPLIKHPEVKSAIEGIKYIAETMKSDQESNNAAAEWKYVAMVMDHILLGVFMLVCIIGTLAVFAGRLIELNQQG
Chain of wild-type AChR (P11230 24-501 partner): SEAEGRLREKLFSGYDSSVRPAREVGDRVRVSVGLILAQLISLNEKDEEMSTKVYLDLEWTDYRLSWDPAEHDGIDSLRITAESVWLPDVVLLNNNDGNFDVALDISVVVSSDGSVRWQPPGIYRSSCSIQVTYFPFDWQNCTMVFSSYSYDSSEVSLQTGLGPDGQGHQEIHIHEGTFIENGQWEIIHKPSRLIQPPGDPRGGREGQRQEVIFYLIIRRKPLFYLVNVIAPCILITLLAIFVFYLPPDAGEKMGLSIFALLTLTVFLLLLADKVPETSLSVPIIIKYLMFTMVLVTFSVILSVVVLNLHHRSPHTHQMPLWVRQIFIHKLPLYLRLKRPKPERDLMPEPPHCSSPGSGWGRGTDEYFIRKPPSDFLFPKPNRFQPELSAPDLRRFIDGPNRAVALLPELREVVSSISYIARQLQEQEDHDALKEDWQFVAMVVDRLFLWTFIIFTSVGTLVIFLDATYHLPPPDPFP
Chain of wild-type AChR (Q07001 22-517): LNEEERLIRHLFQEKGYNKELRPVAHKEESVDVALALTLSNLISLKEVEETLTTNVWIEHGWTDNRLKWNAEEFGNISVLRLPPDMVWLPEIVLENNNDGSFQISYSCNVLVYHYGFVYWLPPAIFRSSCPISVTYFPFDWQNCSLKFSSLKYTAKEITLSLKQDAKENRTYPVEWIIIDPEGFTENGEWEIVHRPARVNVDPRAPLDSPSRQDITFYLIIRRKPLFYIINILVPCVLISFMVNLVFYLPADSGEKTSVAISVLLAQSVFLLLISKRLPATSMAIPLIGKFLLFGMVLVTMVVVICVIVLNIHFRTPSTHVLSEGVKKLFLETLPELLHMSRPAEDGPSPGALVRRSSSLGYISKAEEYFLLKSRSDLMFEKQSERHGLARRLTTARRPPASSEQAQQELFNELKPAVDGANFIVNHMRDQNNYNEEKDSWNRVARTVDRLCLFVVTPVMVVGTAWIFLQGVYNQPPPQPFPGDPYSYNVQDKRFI
Chain of wild-type AChR (Q04844 21-493): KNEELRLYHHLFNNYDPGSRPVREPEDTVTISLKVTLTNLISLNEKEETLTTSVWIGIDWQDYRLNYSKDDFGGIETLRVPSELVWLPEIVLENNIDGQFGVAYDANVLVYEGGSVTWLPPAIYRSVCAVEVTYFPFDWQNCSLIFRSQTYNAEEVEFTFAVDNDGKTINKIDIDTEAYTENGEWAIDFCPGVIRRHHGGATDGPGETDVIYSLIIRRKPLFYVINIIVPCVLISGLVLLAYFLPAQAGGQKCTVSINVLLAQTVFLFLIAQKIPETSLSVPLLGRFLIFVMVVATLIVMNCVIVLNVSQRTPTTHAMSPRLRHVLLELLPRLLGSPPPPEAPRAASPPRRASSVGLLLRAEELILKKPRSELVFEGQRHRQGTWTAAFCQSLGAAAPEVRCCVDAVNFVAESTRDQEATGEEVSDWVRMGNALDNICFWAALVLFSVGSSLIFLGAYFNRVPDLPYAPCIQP

[2] = ACh 5 μM, 8 kHz, 22°C, mean ± SE, four EPs

| Structure (SMILES) | Bursts τ1 [1, 2] [ms] | Bursts τ2 [1, 2] | Bursts, area of τ1 component [1, 2] | Bursts, area of τ2 component [1, 2] | Open intervals τ1 [1, 2] [ms] | Open intervals τ2 [1, 2] [ms] | Open intervals, area of τ1 component [1, 2] | Open intervals, area of τ2 component [1, 2] | burst duration time constant τ1 ([1]; Fig. 1 histogram, one patient, 5 μM ACh) | difference in ACh affinity for the two sites (Torpedo receptor) [fold] | difference in ACh affinity for the two sites (fetal mouse receptor) [fold] | difference in ACh affinity for the two sites (adult human receptor) | increase of ACh affinity in the presence of proadifen (wild-type AChR) [fold] |
| --- | --- | --- | --- | --- | --- | --- | --- | --- | --- | --- | --- | --- | --- |
| CC(=O)OCC[N+](C)(C)C [ACh, acetylcholine] | 0.17 ± 0.025 | 0.59 ms and 0.59 ± 0.061 ms | 0.61 ± 0.061 | 0.39 ± 0.061 | 0.17 ± 0.021 | 0.51 ± 0.037 | 0.65 ± 0.19 | 0.34 ± 0.096 | 0.185 | ~100 | 32 | sixfold |  |
| CCCC(C(=O)OCCN(CC)CC)(c1ccccc1)c1ccccc1 [proadifen] |  |  |  |  |  |  |  |  |  |  |  |  | ~100 |
